Holding throughout (assay): Post-emergence efficacy, Method A
Holding throughout (type): in vivo

In assay [1] the test system is Amaranthus palmeri (AMAPA). Particulars: Amaranthus palmeri, post-emergence, 312 h, evaluated after 13 days, Method A, read-out: Control of weed species after post-emergence application, AMAPA (100=total damage to plant; 0=no damage to plant); for pest or weed control at 500 g/ha: Application Rate 500 g/Ha. The procedure, abridged:
(§1)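 Sow in standard soil; grow 14 d under glasshouse control (24/16 °C, 14 h light, 65% humidity). Spray post-emergence with compound formulated in acetone/IF50, diluted in Empicol ESC70 (0.25% or 1%) + 1% ammonium sulphate. Return to glasshouse, water twice daily, score at 13 d on a 0–100 damage scale.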

Assay [2] concerns Echinochloa crus-galli (ECHCG). Particulars: Echinochloa crus-galli, post-emergence, 312 h, evaluated after 13 days, Method A, read-out: Control of weed species after post-emergence application, ECHCG (100=total damage to plant; 0=no damage to plant); for pest or weed control at 500 g/ha: Application Rate 500 g/Ha. The procedure, abridged:
as §1

The subject of assay [3] is Chenopodium album (CHEAL). Particulars: Chenopodium album, post-emergence, 312 h, evaluated after 13 days, Method A, read-out: Control of weed species after post-emergence application, CHEAL (100=total damage to plant; 0=no damage to plant); for pest or weed control at 500 g/ha: Application Rate 500 g/Ha. The procedure, abridged: as §1
For another assay, the system named is Setaria faberi (SETFA). Particulars: Setaria faberi, post-emergence, 312 h, evaluated after 13 days, Method A, read-out: Control of weed species after post-emergence application, SETFA (100=total damage to plant; 0=no damage to plant); for pest or weed control at 500 g/ha: Application Rate 500 g/Ha. The procedure, abridged: as §1
For assay [4], the system named is Ipomoea hederacea (IPOHE). Particulars: Ipomoea hederacea, post-emergence, 312 h, evaluated after 13 days, Method A, read-out: Control of weed species after post-emergence application, IPOHE (100=total damage to plant; 0=no damage to plant); for pest or weed control at 500 g/ha: Application Rate 500 g/Ha. The essentials: as §1
The test system of assay [5] is Euphorbia heterophylla (EPHHL). Particulars: Euphorbia heterophylla, post-emergence, 312 h, evaluated after 13 days, Method A, read-out: Control of weed species after post-emergence application, EPHHL (100=total damage to plant; 0=no damage to plant); for pest or weed control at 500 g/ha: Application Rate 500 g/Ha. The essentials: as §1
The test system of assay [6] is Digitaria sanguinalis (DIGSA). Particulars: Digitaria sanguinalis, post-emergence, 312 h, evaluated after 13 days, Method A, read-out: Control of weed species after post-emergence application, DIGSA (100=total damage to plant; 0=no damage to plant); for pest or weed control at 500 g/ha: Application Rate 500 g/Ha. The essentials: as §1
The test system of another assay is Lolium perenne (LOLPE). Particulars: Lolium perenne, post-emergence, 312 h, evaluated after 13 days, Method A, read-out: Control of weed species after post-emergence application, LOLPE (100=total damage to plant; 0=no damage to plant); for pest or weed control at 500 g/ha: Application Rate 500 g/Ha. The essentials: as §1
The test system of the next assay is Eleusine indica (ELEIN). Particulars: Eleusine indica, post-emergence, 312 h, evaluated after 13 days, Method A, read-out: Control of weed species after post-emergence application, ELEIN (100=total damage to plant; 0=no damage to plant); for pest or weed control at 500 g/ha: Application Rate 500 g/Ha. The essentials: as §1

Molecules are shown by their SMILES.

Turning to `N[C@@H](C[n+]1ccc(-c2ncccn2)cn1)C(=O)O` [Compound A208, [(1S)-1-carboxy-2-(4-pyrimidin-2-ylpyridazin-1-ium-1-yl)ethyl]ammonium 2,2,2-trifluoroacetate], the pest or weed control at 500 g/ha came to 100% in assay [1]; 30% in assay [2]; 80% in assay [3]; 60% with Setaria faberi (SETFA); 20% in assay [4]; 50% in [5]. Moreover, the pest or weed control at 500 g/ha in assay [6] is 40%; with Lolium perenne (LOLPE) it was 10%; in the assay on Eleusine indica (ELEIN) it was 60%.
`CNS(=O)(=O)c1cnc(-c2cc[n+](CCC(=O)O)nc2)nc1` [Compound A209]: the pest or weed control at 125 g/ha in assay [1] (Application Rate 125 g/Ha) came to 30%; in [2] (Application Rate 125 g/Ha) it was 10%; in assay [3] (Application Rate 125 g/Ha), 10%; with Setaria faberi (SETFA) (Application Rate 125 g/Ha), 20%; in [4] (Application Rate 125 g/Ha), 0%; in [5] (Application Rate 125 g/Ha) it was 0%. In addition, the values for the pest or weed control at 125 g/ha (in assay [6] (Application Rate 125 g/Ha); with Lolium perenne (LOLPE) (Application Rate 125 g/Ha); in the assay with Eleusine indica (ELEIN) (Application Rate 125 g/Ha)) were 30%, 10% and 0%, respectively.
In the case of `Nc1cc(-c2cc[n+](CCC(=O)O)nc2)ccn1` [Compound A210], the pest or weed control at 500 g/ha in assay [1] amounted to 70%; in [2], 10%; in assay [3], 10%; in the assay with Setaria faberi (SETFA), 30%; in [4], 10%; in assay [5], 10%. Moreover, the pest or weed control at 500 g/ha in [6] was 60%; in the assay on Lolium perenne (LOLPE), 20%; in the assay on Eleusine indica (ELEIN), 20%.
On to `Cc1cc(-c2ncccn2)cn[n+]1CCS(=O)(=O)[O-]` [Compound A212, 2-(6-methyl-4-pyrimidin-2-yl-pyridazin-1-ium-1-yl)ethanesulfonate], for which the pest or weed control at 500 g/ha was found to be 100% in assay [1]; 70% in [2]; 100% in assay [3]; 80% in the assay with Setaria faberi (SETFA); 30% in [4]; 100% in [5]. Besides, the pest or weed control at 500 g/ha in [6] was 90%; in the assay on Lolium perenne (LOLPE) it was 70%; with Eleusine indica (ELEIN), 90%.
`CN(C)S(=O)(=O)[N-]C(=O)C[n+]1ccc(-c2ncccn2)cn1` [Compound A214, dimethylsulfamoyl-[2-(4-pyrimidin-2-ylpyridazin-1-ium-1-yl)acetyl]azanide]: the pest or weed control at 500 g/ha is 100% in assay [1]; 100% in assay [2]; 100% in assay [3]; 90% in the assay with Setaria faberi (SETFA); 40% in assay [4]; 100% in assay [5]. The pest or weed control at 500 g/ha in assay [6] stood at 100%; in the assay with Lolium perenne (LOLPE) it was 80%; in the assay with Eleusine indica (ELEIN), 100%.
Turning to `O=S(=O)([O-])CCCC[n+]1ccc(-c2ncccn2)cn1` [Compound A215], the pest or weed control at 500 g/ha in assay [1] came out at 100%; in assay [2], 30%; in [3], 60%; in the assay with Setaria faberi (SETFA) it was 20%; in assay [4] it was 60%; in assay [5], 90%. Further, the results for the pest or weed control at 500 g/ha (in [6]; in the assay on Lolium perenne (LOLPE); with Eleusine indica (ELEIN)) were 60%, 20% and 30%, respectively.
Turning to `O=S(=O)([O-])OCCC[n+]1ccc(-c2ncccn2)cn1` [Compound A216], the pest or weed control at 500 g/ha was 100% in assay [1]; 70% in assay [2]; 90% in assay [3]; 90% in the assay with Setaria faberi (SETFA); 60% in assay [4]; 100% in [5]. Moreover, the pest or weed control at 500 g/ha in assay [6] was determined as 100%; with Lolium perenne (LOLPE) it was 70%; with Eleusine indica (ELEIN) it was 100%.
For `CO[N-]C(=O)CC[n+]1ccc(-c2ncccn2)cn1` [Compound A218], the pest or weed control at 500 g/ha came to 100% in assay [1]; 60% in [2]; 80% in assay [3]; 60% with Setaria faberi (SETFA); 70% in assay [4]; 80% in [5]. Further, the pest or weed control at 500 g/ha in assay [6] was 70%; in the assay on Lolium perenne (LOLPE), 70%; in the assay on Eleusine indica (ELEIN), 60%.
On to `CO[N-]C(=O)C[n+]1ccc(-c2ncccn2)cn1` [Compound A219], for which the pest or weed control at 500 g/ha in [1] came to 100%; in [2] it was 40%; in assay [3], 80%; in the assay on Setaria faberi (SETFA), 90%; in assay [4], 60%; in assay [5] it was 90%. Further, the results for the pest or weed control at 500 g/ha (in assay [6]; in the assay with Lolium perenne (LOLPE); with Eleusine indica (ELEIN)) were 70%, 70% and 100%, respectively.
Turning to `CC(C[n+]1ccc(-c2ncccn2)cn1)NS(=O)(=O)[O-]` (stereo not drawn) [Compound A221], the pest or weed control at 500 g/ha in assay [1] stood at 100%; in assay [2], 60%; in assay [3], 90%; in the assay on Setaria faberi (SETFA), 80%; in assay [4], 60%; in assay [5], 90%. Further, the pest or weed control at 500 g/ha stood at 100% in assay [6], 60% with Lolium perenne (LOLPE) and 100% in the assay on Eleusine indica (ELEIN).
For the molecule `CC(CNS(=O)(=O)[O-])[n+]1ccc(-c2ncccn2)cn1` (stereo not drawn) [Compound A223], the pest or weed control at 500 g/ha in [1] was 100%; in assay [2], 70%; in [3], 90%; in the assay on Setaria faberi (SETFA), 80%; in assay [4], 60%; in [5], 80%. Besides, the pest or weed control at 500 g/ha in assay [6] was determined as 90%; with Lolium perenne (LOLPE), 80%; with Eleusine indica (ELEIN), 90%.

Source of the values: patent US20220125051A1, “PRE-HARVEST DESICCATION METHOD” (SYNGENTA CROP PROTECTION AG, priority 2019, published 2022).
